The source of these data is ChEMBL document CHEMBL4616727, “Characterization of Conformationally Constrained Benzanilide Scaffolds for Potent and Selective HDAC8 Targeting” (J Med Chem, 2020).

One data set has as its target T1, Histone deacetylase 7 (Homo sapiens, UniProt Q8WUI4).
T1 sequence (Q8WUI4 whole entry): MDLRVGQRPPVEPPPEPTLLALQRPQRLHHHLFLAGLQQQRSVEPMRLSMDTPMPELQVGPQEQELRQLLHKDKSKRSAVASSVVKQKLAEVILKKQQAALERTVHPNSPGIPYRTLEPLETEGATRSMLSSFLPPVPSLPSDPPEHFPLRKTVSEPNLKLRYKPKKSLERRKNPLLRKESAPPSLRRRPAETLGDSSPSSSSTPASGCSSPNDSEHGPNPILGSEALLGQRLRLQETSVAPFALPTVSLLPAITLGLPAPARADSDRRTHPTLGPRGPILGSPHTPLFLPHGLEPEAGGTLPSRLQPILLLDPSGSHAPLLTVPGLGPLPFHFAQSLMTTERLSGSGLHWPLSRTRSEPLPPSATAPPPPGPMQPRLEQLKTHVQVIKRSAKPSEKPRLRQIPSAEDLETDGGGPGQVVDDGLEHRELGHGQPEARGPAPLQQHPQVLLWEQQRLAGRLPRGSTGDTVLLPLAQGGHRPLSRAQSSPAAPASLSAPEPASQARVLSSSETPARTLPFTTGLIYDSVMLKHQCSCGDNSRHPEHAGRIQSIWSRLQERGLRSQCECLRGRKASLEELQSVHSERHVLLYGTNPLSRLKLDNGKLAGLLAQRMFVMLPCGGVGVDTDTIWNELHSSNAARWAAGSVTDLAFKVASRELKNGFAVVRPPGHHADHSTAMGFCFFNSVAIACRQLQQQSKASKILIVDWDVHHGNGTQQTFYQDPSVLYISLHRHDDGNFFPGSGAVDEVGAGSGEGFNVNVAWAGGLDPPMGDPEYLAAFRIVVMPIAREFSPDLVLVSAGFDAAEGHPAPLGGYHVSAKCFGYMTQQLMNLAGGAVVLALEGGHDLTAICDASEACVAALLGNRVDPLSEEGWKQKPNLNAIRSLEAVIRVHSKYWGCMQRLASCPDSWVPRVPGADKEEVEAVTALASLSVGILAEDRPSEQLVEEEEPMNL
The data set is described as follows: Inhibition of N-terminal GST-tagged human HDAC7 (518 to end residues) expressed in baculovirus expression system using FAM-RHKK(TF-Ac)-NH2 substrate incubated for 3 hrs by EMSA method.

For the next data set, the target named is Histone deacetylase 9 (Homo sapiens, UniProt Q9UKV0). The data set is described as follows: Inhibition of C-terminal His-tagged human HDAC9 (604 to 1066residues) expressed in baculovirus expression system using […] substrate incubated for 3 hrs by EMSA method.
Histone deacetylase 9, sequence (Q9UKV0 whole entry): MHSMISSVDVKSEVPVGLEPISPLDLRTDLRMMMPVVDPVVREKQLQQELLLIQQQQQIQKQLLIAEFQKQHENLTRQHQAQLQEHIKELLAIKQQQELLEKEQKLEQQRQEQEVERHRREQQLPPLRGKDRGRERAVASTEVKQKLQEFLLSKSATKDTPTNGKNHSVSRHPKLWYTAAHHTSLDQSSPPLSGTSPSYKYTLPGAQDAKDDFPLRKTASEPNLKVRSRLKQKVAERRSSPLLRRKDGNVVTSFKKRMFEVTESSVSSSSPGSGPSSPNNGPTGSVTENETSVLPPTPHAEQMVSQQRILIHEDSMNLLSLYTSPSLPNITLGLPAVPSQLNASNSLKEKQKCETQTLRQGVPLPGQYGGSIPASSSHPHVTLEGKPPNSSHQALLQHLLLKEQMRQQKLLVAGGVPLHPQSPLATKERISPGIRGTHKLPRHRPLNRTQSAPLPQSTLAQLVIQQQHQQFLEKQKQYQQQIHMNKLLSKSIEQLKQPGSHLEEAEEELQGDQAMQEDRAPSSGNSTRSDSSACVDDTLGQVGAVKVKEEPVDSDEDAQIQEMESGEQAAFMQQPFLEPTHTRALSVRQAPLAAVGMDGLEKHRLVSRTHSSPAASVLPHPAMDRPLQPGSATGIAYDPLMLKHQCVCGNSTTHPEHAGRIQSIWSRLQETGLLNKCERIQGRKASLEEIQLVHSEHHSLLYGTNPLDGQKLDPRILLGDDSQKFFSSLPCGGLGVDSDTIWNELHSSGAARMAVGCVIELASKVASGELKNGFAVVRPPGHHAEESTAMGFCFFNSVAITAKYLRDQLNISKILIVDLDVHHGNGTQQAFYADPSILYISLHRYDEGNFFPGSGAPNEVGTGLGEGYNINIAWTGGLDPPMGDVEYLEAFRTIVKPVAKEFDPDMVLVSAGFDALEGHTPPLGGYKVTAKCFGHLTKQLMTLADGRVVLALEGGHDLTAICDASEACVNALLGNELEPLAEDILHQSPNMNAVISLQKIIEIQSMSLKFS
Another data set deals with Histone deacetylase 5 (Homo sapiens, UniProt Q9UQL6). Nature of the data set: Inhibition of N-terminal GST-tagged full length human HDAC5 expressed in baculovirus expression system using FAM-RHKK(TF-Ac)-NH2 substrate incubated for 2 hrs by EMSA method.
Histone deacetylase 5, sequence (Q9UQL6 whole entry): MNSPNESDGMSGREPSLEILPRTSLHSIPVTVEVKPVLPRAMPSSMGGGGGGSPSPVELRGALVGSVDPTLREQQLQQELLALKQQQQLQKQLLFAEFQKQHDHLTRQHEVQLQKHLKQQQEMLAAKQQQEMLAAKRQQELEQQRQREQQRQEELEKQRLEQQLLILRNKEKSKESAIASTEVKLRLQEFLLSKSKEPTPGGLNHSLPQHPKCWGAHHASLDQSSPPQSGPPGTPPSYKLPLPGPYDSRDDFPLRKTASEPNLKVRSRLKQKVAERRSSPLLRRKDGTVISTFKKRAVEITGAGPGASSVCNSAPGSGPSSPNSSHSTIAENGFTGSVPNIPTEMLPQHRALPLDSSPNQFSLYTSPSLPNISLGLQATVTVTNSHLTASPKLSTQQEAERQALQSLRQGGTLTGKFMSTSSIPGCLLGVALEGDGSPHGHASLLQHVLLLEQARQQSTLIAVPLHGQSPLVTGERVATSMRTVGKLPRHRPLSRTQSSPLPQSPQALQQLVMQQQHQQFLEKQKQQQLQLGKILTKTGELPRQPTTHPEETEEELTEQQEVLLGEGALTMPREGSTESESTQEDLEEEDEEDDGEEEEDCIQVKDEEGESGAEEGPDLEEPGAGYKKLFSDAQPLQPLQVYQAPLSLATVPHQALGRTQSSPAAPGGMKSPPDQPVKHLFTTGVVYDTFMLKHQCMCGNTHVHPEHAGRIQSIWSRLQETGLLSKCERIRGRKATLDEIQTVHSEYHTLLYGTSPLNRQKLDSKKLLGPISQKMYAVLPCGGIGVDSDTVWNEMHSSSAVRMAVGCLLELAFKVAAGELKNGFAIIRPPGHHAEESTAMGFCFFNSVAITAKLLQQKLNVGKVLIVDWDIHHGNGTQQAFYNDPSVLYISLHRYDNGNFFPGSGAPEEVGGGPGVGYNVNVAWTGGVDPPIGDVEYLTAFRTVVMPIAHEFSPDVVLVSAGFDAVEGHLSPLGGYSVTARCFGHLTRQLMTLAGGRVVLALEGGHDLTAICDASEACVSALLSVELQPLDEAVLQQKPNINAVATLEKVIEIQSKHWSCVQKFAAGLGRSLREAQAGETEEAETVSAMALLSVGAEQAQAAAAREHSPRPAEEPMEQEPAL
In data set [1] the target is T2, Polyamine deacetylase HDAC10 (Homo sapiens, UniProt Q969S8).
T2 sequence (Q969S8 whole entry): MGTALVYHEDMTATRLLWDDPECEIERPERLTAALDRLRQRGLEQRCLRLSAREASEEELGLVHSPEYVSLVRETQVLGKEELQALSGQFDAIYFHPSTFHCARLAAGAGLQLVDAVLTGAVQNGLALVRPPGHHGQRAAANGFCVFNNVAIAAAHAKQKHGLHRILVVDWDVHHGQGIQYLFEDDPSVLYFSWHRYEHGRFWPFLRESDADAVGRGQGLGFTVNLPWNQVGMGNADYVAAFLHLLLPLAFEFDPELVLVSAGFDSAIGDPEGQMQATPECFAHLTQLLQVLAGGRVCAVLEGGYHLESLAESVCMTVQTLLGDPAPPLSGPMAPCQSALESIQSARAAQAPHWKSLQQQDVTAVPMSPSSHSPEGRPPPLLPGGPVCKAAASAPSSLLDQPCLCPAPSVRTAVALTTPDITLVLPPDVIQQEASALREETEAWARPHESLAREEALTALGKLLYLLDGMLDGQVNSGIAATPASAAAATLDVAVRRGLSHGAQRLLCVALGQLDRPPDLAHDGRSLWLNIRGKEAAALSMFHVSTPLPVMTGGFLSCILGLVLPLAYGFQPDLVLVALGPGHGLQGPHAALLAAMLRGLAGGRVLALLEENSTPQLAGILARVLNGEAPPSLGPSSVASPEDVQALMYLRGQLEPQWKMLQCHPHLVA
The data set is described as follows: Inhibition of N-terminal His-tagged full length human HDAC10 expressed in baculovirus expression system using FAM-TSRHK(Ac)KL-NH2 substrate incubated for 17 hrs by EMSA method.

Data set [2] can be described thus: Effective permeability at pH 7.4 by PAMPA method. Format: ADME.
For the next data set, the target named is Histone deacetylase 4 (Homo sapiens, UniProt P56524). Nature of the data set: Inhibition of C-terminal GST-tagged human HDAC4 (101 to 1084 resides) expressed in baculovirus expression system using FAM-RHKK(TF-Ac)-NH2 substrate incubated for […] by EMSA method.
Histone deacetylase 4, sequence (P56524 whole entry): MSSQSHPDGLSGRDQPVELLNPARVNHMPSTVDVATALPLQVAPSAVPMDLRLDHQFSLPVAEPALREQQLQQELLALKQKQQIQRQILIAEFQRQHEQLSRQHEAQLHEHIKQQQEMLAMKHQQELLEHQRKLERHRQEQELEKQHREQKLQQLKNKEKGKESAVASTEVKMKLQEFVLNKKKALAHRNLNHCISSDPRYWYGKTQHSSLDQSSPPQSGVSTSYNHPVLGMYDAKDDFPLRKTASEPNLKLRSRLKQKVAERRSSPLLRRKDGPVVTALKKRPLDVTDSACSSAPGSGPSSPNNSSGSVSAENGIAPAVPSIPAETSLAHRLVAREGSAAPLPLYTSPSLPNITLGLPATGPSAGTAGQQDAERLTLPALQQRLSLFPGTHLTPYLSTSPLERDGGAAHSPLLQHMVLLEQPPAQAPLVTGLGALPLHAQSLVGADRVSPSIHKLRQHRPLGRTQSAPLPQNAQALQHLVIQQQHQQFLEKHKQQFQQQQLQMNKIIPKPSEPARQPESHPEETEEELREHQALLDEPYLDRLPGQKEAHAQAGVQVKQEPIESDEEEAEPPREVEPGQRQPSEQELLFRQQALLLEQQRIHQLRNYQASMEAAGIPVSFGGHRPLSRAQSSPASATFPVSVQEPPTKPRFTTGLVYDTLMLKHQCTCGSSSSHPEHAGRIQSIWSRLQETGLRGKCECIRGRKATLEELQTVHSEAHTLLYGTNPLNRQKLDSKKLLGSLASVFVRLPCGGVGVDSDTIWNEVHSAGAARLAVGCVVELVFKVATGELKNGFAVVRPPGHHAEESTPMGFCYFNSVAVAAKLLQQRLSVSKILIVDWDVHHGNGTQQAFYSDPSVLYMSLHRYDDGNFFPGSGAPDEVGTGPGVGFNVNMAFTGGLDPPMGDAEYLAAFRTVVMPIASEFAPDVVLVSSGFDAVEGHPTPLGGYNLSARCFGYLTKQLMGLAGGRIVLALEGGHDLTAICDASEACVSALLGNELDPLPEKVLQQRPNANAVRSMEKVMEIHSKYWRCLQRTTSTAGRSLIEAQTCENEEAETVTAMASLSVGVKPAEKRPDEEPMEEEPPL
The nature of data set [3]: Effective permeability assessed as drug recovery at pH 7.4 by PAMPA method. Format: ADME. The note with it: read-out: Drug recovery.
For a further data set, the system named is BE(2)-C. The data set is described as follows: Inhibition of colony formation in human BE(2)-C cells.
Data set [4] is described as follows: MRT in CD1 mouse at 100 mg/kg, ip measured after 5 mins to 12 hrs by LC-MS/MS analysis. The following applies: in vivo. Format: ADME, organism-based.
Data set [5] in a line: Cmax in CD1 mouse at 100 mg/kg, ip measured after 5 mins to 12 hrs by LC-MS/MS analysis. The following applies: in vivo. Also on record: dose 100 mg/kg, route intraperitoneal. Format: ADME, organism-based.
A short description of data set [6]: AUClast in CD1 mouse at 100 mg/kg, ip measured after 5 mins to 12 hrs by LC-MS/MS analysis. Format: ADME, organism-based. Also on record: time upper 12 hr, time lower 0.083 hr, dose 100 mg/kg, route intraperitoneal. The following applies: in vivo.
A short description of data set [7]: Half life in CD1 mouse at 100 mg/kg, ip measured after 5 mins to 12 hrs by LC-MS/MS analysis. It is filed as ADME, organism-based. The note with it: in vivo.

Turning to `CC(C)N(C(=O)c1cc(C(F)(F)F)cc(C(F)(F)F)c1)c1ccc(C(=O)NO)cc1`, the IC50 (on Histone deacetylase 7; at Histone deacetylase 9; against Histone deacetylase 5; in data set [1]; on Histone deacetylase 4) was above 10 µM throughout. Besides, the “log(permeability)” value in [2] was -5.42. Besides, the recovery in data set [3] is 95.4%.
In the data set with BE(2)-C, `CC(C)(C)c1cccc(C(=O)N(CC2CC2)c2ccc(C(=O)NO)cc2)c1` showed an IC50 of 2.1 µM. For the same compound, in data set [4], the MRT was found to be 2.77 h. For the same compound, the “log(permeability)” value in data set [2] is listed as -5.7. In addition, the recovery in data set [3] came out at 102%.
Regarding `CC(C)N(C(=O)c1cccc(OC(F)(F)F)c1)c1ccc(C(=O)NO)cc1`, the MRT in data set [4] amounted to 3 h. Moreover, the “log(permeability)” value in [2] was -5.8. In addition, in data set [3], the recovery was determined as 102%.
`COc1ccc(Cn2ccc3ccc(C(=O)NO)cc32)cc1` displayed a maximum concentration (Cmax) in data set [5] of 57.6 µM. This compound yielded a mean residence time (MRT) in data set [4] of 0.45 h. The same compound came in with an AUC(0-t) in [6] of 6950 ng·h/mL. In data set [7], this compound had a half-life of 3.3 h.
